Test results as given in patent US20060166905A1, “Aivlosin for the treatment of disease due to brachyspira pilosicoli or ornithobacterium rhinotracheale” (ECO Animal Health, LTD., priority 2003, published 2006).
≈ marks a conversion by molar mass, not a printed value. Where two headings read alike, the source gives them in different places.

Tests used:
Assay type in all cases: cell-based
Brachyspira pilosicoli = assay: MIC of aivlosin by antibiotic dilution method in agar plates
Method: Determination of Minimum Inhibitory Concentration (MIC) of Aivlosin Against Brachyspira pilosicoli
(§1) The MIC of acetyl isovaleryltylosin was determined against 5 field strains of Brachyspira pilosicoli isolated from different pig populations in various parts of England using an antibiotic dilution method. Four replicates of 0.2 ml of each isolate were inoculated into agar plates prepared with antibiotic concentrations from 0.78 to 200 μg/ml. A strain of Brachyspira hyodysenteriae (P18A), for which the MIC for acetyl isovaleryltylosin was already known, was used as a control.

[1] = test system: Brachyspira hyodysenteriae (P18A); assay: MIC by antibiotic dilution method in agar plates, control strain; settings: Control P1 8A
Method: as §1

[2] = test system: Ornithobacterium rhinotracheale; assay: MIC test, twofold dilution in serum broth; settings: for MIC: Ornithobacterium rhinotracheale, read-out: concentration that inhibited the growth (MIC)
Method: Testing of Aivlosin and Tilmicosin (Pulmotil) Against Ornithobacterium rhinotracheale Using the MIC (Minimum Inhibitory Concentration) Test
The following antibiotics were each tested against four isolates of Ornithobacterium rhinotracheale (OR):
The antibiotics were tested against the following isolates of OR:
The concentration needed of each antibiotic was calculated according to its active ingredient.
The four freeze dried bacterial isolates of Ornithobacterium rhinotracheale were reconstituted, inoculated into 10 ml serum broth (supplied by OBP, code 655) and incubated at 37° C. for 48 hours. After incubation the optical density (OD) of each culture was read at 540 nm. To verify purity the cultures were plated out onto Blood Tryptose agar plates, incubated at 37° C., using 5 % CO2 conditions, for 48 hours after which the plates were examined for any contaminants.
12 tubes per isolate for each of the antibiotics were placed into a test tube rack. 2 ml serum broth was dispensed into each of the tubes. 2 ml of the antibiotic were then added to the first tube in the respective row and a twofold dilution were made (32 μg/ml-0.0625 μg/ml). 20 μl of the bacteria was then added to 11 of the tubes. The 12th tube, i.e. negative control received neither antibiotic nor bacteria. The 11th tube i.e. positive control only received 20 μl bacteria. All the tubes were then incubated at 37° C. and the MIC read after 48 hours incubation

[3] = even at relatively low concentrations

Row | SMILES | preventing the growth of Brachyspira pilosicoli (Brachyspira pilosicoli; [3]) | MIC (Brachyspira pilosicoli; field strain 0P0204-10-97(4)) [µg/mL] | MIC (Brachyspira pilosicoli; field strain P0098-10-97) [µg/mL] | MIC (Brachyspira pilosicoli; field strain P0352-10-98) [µg/mL] | MIC (Brachyspira pilosicoli; field strain P0525-01-98) [µg/mL] | MIC (Brachyspira pilosicoli; field strain P0730-09-97) [µg/mL] | MIC range (Brachyspira pilosicoli; field strains, with the exception of isolate P0204-10-97 (4)) [µg/mL] | MIC [1] [µg/mL] | preventing the growth of Ornithobacterium rhinotracheale [2, 3] | concentration that inhibited the growth (MIC) ([2]; the isolates tested (four)) [µg/mL] | MIC ([2]; the fourth isolate) [µg/mL] | MIC ([2]; three of the isolates tested) [µg/mL]
1 | CCC1OC(=O)CC(OC(C)=O)C(C)C(OC2OC(C)C(OC3CC(C)(O)C(OC(=O)CC(C)C)C(C)O3)C(N(C)C)C2O)C(CC=O)CC(C)C(=O)C=CC(C)=CC1COC1OC(C)C(O)C(OC)C1OC (stereo not drawn) [Aivlosin, 3-O-acetyl-4″-O-isovaleryl-tylosin] | particularly effective | <0.781 | 25.0 | 6.25 | 6.25 | 12.5 | 6.25 to 25.0 | 12.5 (≈ 12 µM) | particularly effective | 0.5 |  | 
2 | CC[C@H]1OC(=O)C[C@@H](O)[C@H](C)[C@@H](O[C@@H]2O[C@H](C)[C@@H](O)[C@H](N(C)C)[C@H]2O)[C@@H](CCN2C[C@H](C)C[C@H](C)C2)C[C@@H](C)C(=O)/C=C/C(C)=C/[C@@H]1CO[C@@H]1O[C@H](C)[C@@H](O)[C@@H](OC)[C@H]1OC [Pulmotil, Tilmicosin] |  |  |  |  |  |  |  |  |  |  | 8 (≈ 9.2 µM) | 4 (≈ 4.6 µM)
